In patent publication US7985773B2 (American Sterilizer Company, priority 2004, dated 2011):
Where “and” joins values, the source holds several entries; their conditions need not be identical. Equal values may be shown once.

Test system: Serratia marcescens ATCC 14756
Assay: Residual activity testing procedure on pigskin
Type: cell-based
Details: for Average Log Reduction: average of two series; for log reduction values and antimicrobial activity (in words): compositions of Table V, additive at 0.5 parts per 100 parts; for Log Value: log of colony forming units remaining; for Log Value / Log Reduction: single series; for antimicrobial activity (in words): additives of Table II in the Table I base; for antimicrobial activity (in words) / Average Series: FIG. 1; for Average Series: average log reduction of all four series
Method: The gram negative organism was grown for approximately 24 hours at 30° C. and then suspended in Butterfields Buffer to a count of 1×10^8. The pigskins were prepared according to the following standard of procedure. Pigskin hides are collected on the date of slaughter and processed on the same day by removing adipose tissue and thoroughly cleaning the hide. Both of these processes are accomplished by spraying both sides of the pig hide with a high pressure washer. No soap or detergents are used at any time during the processing of pig hides for laboratory use. After cleaning and de-fatting, pigskins are placed in water and frozen at the farm from which they were harvested. When required for laboratory testing, a representative procures the hides and thaws them for laboratory manipulation. In the laboratory, these hides are cut into manageable pieces with a scalpel and coarse hair removed with animal grooming clippers. Disposable razors are further employed to create a smooth surface without negatively affecting the skin surface. These pieces are then sterilized by Gamma irradiation and kept frozen until use in a study. Testing circles were then punched out of the pigskins and glued to a phenolic cap. The testing samples were placed in a 30° C. oven to equilibrate for at least 20 minutes. Each skin was treated with 150 μl of test product and rubbed for 30 seconds as a pair, skin to skin. The skins were allowed to dry for 30 seconds and then the test product was reapplied four times in the same manner. The skins were allowed to dry in a slightly opened hood for 15 minutes. After drying the skins were inoculated with 31 μl of the Serratia marcescens inoculum, as prepared above, rubbed for 15 seconds, and sampled after three minutes. To sample, a sterile 3.5 cm diameter cylinder is placed, lip side down, over the pigskin on the cap. Enough pressure is applied to the cylinder to prevent any leakage upon the addition of an appropriate volume of liquid sampling solution to the cylinder. The skin is then debrided, using a sterile policeman, for 30 seconds by rubbing the surface of the skin with the flat edge of the policeman with enough pressure to remove any microorganisms that might be on the surface. Two mL of the sampling solution are removed using a sterile pipet and are utilized for preparing serial dilutions and aerobic plate counts to establish the number of Colony Forming Units remaining.

[1] = additive at 0.5 parts by weight per 100 parts total composition in the Table I base, FIG. 2
[2] = additive at 0.5 parts by weight per 100 parts total composition in the Table I base
[3] = additive at the active % listed in Table III in the Table I base
[4] = additive at the active % listed in Table III in the Table I base, pigskin residual activity

Row | Molecule | Average Log Reduction [1] | Log Value [2] | Log Reduction [2] | Average Series [3] | also measured
1 | CCCCCCCCCCCCCCCCCCCCCC[N+](C)(C)Cc1ccccc1.[Cl-] [Behenalkonium chloride, Behenalkonium Chloride] | 4.41 | 1.60 and 1.78 | 4.50 and 4.32 |  | log reduction values and antimicrobial activity (in words): excellent log reduction values
2 | CCCCCCCCCCCCCCCCCCCCCC[N+](C)(C)C.[Cl-] [Behentrimonium chloride] | 0.33 | 5.78 and 5.76 | 0.32 and 0.34 |  | 
3 | CCCCCCCCCCCCCCCCCCCCCC[N+](C)(C)C.COS(=O)(=O)[O-] [Behentrimonium methosulfate] | 5.25 |  |  | 5.39 | antimicrobial activity (in words): enhanced antimicrobial activity; log reduction values and antimicrobial activity (in words): excellent log reduction values
4 | CC(C)(C)CC(C)(C)c1ccc(OCCOCC[N+](C)(C)Cc2ccccc2)cc1 [Benzethonium Chloride, Benzethonium chloride] |  |  |  | 0.17 | 
5 | CCCCCCCCCCCCCCCC[N+](C)(C)C.[Cl-] [Cetrimonium chloride] | 1.24 | 4.87 and 4.85 | 1.23 and 1.25 |  | 
6 | C[N+](C)(C)CCCNC(=O)C=Cc1ccccc1.[Cl-] [Cinnamidopropyl trimethylammonium chloride] | 0.05 | 5.98 and 6.12 | 0.12 and −0.02 |  | 
7 | CCCCCCCCCC(=O)OCC(O)CO (stereo not shown) [Glyceryl caprate] |  | 5.17 and 5.19 |  |  | 
8 | CCCCCCCCCCCC(=O)OCC(O)CO (stereo not shown) [Glyceryl monolaurate] |  |  |  | −0.21 | 
9 | CCCCCCCCCCCCCCCCCCCCCC(=O)NCCC[N+](C)(C)CCO.[Cl-] [Hydroxyethyl behenamidopropyldimonium chloride] | 0.63 |  |  |  | 
10 | COC(=O)c1ccc(O)cc1 [Methyl paraben] |  |  |  | 0.03 | 
11 | CCCCCCCC/C=C\CCCCCCCC[N+](C)(C)Cc1ccccc1.[Cl-] [Olealkonium chloride, Olealkonium Chloride] | 0.31 | 5.76 and 5.81 | 0.34 and 0.29 |  | 
12 | Cc1cc(O)cc(C)c1Cl [PCMX] |  |  |  | 0.16 | Average Log Reduction [4]: 0.06 and 0.26
13 | OCCOc1ccccc1 [Phenoxyethanol, Phenoxyethanol (ethylene glycol phenyl ether)] |  |  |  | 3.39 | antimicrobial activity (in words): enhanced antimicrobial activity
14 | CCCOC(=O)c1ccc(O)cc1 [Propyl paraben] |  |  |  | 0.40 | 
15 | CCCCCCCCCCCCCCCCCC[N+](C)(C)Cc1ccccc1.[Cl-] [Stearalkonium chloride] | 0.25 | 5.93 and 5.77 | 0.17 and 0.33 |  | 
16 | CC(O)C(=O)O.CCCCCCCCCCCCCCCCCC(=O)NCCCN(C)C [Stearamidopropyl dimethylamine lactate] |  | 6.22 and 6.05 |  |  | 
17 | Oc1cc(Cl)ccc1Oc1ccc(Cl)cc1Cl [Triclosan] |  |  |  | −0.04 | 
18 | Babbassuamidopropalkonium Chloride | 0.35 | 5.82 and 5.68 | 0.28 and 0.42 |  | 
19 | Cocoamidopropyl PG dimonium chloride |  |  |  | −0.04 | Average Log Reduction [4]: −0.13 and 0.04
20 | IPEG-3 Dioleylamidoethylmonium methosulfate | 0.27 | 5.84 and 5.81 | 0.26 and 0.29 |  | 
21 | Isostearyamidopropyl morpholine lactate | −0.09 | 6.17 and 6.20 | −0.07 and −0.10 |  | 
22 | Quaternium 26 | −0.07 | 6.20 and 6.13 | −0.11 and −0.03 |  | 
23 | Sodium Coco PG-Dimonium chloride phosphate | 0.40 | 5.69 and 5.71 | 0.41 and 0.39 |  | 
